Assay results taken from paper PMC9884089 (Journal of Medicinal Chemistry, 2023).

Experiments:
[1] = PAMPA, gastrointestinal tract (GI) permeability; format: in vitro ADME; details: phosphatidylcholine; for Papp at 5 h, 500 μM: pH 7.4, 5 h
Method: (§1) Each “donor solution” was prepared from a solution of the appropriate compound (DMSO, 1 mM) diluted with phosphate buffer (pH 7.4, 0.025 M) up to a final concentration of 500 μM. […] Donor solution (150 μL) was added to each well of the filter plate and to each well of the acceptor plate was added 300 μL of solution (50% DMSO in phosphate buffer). The sandwich plate was assembled and incubated for 5 h at r.t. After the incubation time, the plates were separated, and the samples were taken from both the donor and acceptor wells, and the amount of compound was measured by UV/LC–MS. All compounds were tested in three independent experiments. […] Drug concentration is estimated by using the peak area integration. Membrane retentions (%) were calculated according to the following equation [drawing 2] where r is the ratio between drug concentration in the acceptor and equilibrium concentration and D, A, and Eq represent drug concentration in the donor, acceptor, and equilibrium solution, respectively.

TNKS1 = molecular target: T1, TNKS1 (Homo sapiens, UniProt O95271); assay: PARP profiling activity assay, TNKS1; format: biochemical
T1 sequence (O95271 1-1327): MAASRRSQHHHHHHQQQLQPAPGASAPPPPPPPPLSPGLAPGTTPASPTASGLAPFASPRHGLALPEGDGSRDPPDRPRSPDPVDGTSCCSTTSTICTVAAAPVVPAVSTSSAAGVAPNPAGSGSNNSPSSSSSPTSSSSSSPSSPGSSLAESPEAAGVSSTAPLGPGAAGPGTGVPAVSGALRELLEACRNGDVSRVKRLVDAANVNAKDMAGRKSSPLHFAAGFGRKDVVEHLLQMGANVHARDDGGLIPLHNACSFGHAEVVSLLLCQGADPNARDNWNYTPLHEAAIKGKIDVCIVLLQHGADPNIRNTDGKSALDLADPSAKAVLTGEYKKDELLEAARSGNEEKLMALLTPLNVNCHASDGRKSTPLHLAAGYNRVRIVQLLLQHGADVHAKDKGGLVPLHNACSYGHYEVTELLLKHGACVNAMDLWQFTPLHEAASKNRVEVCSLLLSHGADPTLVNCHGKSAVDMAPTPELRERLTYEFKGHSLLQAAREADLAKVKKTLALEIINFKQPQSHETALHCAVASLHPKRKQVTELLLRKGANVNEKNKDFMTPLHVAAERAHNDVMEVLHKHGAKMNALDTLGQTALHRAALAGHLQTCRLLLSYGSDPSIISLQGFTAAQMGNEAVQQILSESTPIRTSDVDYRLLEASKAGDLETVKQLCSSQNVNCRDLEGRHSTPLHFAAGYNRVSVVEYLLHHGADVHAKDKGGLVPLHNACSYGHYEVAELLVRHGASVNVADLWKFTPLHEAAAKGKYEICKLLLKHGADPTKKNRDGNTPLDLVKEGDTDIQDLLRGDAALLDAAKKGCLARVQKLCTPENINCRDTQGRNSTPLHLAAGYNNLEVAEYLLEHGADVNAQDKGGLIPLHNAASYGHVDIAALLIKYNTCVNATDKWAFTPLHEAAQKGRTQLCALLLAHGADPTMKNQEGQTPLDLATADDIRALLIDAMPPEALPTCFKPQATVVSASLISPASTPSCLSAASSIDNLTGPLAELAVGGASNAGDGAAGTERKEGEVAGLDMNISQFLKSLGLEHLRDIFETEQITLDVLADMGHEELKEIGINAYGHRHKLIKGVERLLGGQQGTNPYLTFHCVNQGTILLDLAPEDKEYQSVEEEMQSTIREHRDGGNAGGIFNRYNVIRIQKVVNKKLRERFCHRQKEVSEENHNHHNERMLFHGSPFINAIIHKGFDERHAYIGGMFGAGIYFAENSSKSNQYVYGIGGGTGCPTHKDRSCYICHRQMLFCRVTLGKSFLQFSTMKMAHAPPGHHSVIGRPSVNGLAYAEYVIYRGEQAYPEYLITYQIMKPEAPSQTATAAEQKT

[2] = PAMPA, blood brain barrier (BBB) permeability; format: in vitro ADME; details: brain polar lipid; for Papp at 5 h, 500 μM: pH 7.4, 5 h
Method: as §1

[3] = tested on: HeLa Flp-In T-REx-PARP10 cells; assay: PARP10 rescue assay (colony formation, Dox-induced PARP10 overexpression); format: cell-based, human; details: for EC50: Homo sapiens, HeLa, read-out: PARP10 rescue EC50; for Rescue of cells from PARP10-induced cell death: at 1 μM, colony formation
Method: HeLa Flp-In T-REx-PARP10 and -PARP10-G888W cells were grown in DMEM medium supplemented with 10% heat-inactivated fetal calf serum at 37 °C in 5% CO2.[92] For colony formation assays, 500 HeLa cells were seeded in 6-well culture plates. Once the cells adhered, protein expression was induced by adding 500 ng/mL Dox. […] The number of colonies was assessed using ImageJ. EC50 curves were fitted using three variables in GraphPad Prism version 8.02.

Human PARP6 = molecular target: T2, Human PARP6 (Homo sapiens, UniProt Q2NL67); assay: PARP6 inhibition assay (400 nM PARP6, 500 nM NAD+, 18 h); format: biochemical; details: ≫ no inhibition at the concentration; > less than 50% inhibition
T2 construct: Human PARP6 (Uniprot #Q2NL67-1) was cloned into a modified pFASTBac1 vector; 6× His-MBP with TEV protease site (N, cleaved yes); made in house; host or cells: Sf21 insect cells (baculovirus)
Method: Inhibition experiments were performed using a homogenous assay measuring NAD+ consumption.[80]−[82] Reactions were carried out in quadruplicate, and IC50 curves were fitted using sigmoidal dose response curve (four variables) in GraphPad Prism version 8.02. […] Assay conditions for PARP2, TNKS2, PARP10, and PARP15 (Tables 1–3) were recently reported.[44] The conditions for the proximity-enhanced mono-ART assays (Table 4) were also reported recently.[47] PARP6 (400 nM) inhibition was measured using the standard buffer (50 mM sodium phosphate pH 7.0) for the enhanced activity assay using 500 nM NAD^+ and 18 h incubation in r.t..

[4] = Stability in human plasma; format: in vitro ADME; details: 37 °C
Method: HEPES buffer (0.9 mL, 25 mM, 140 mM NaCl, pH 7.4), and 0.1 mL of each compound in DMSO (2.0 mM). The solution was mixed in a test tube that was incubated at 37 °C. […] The supernatant was removed and analyzed by UV/LC–MS.

T2 sequence (Q2NL67 whole entry): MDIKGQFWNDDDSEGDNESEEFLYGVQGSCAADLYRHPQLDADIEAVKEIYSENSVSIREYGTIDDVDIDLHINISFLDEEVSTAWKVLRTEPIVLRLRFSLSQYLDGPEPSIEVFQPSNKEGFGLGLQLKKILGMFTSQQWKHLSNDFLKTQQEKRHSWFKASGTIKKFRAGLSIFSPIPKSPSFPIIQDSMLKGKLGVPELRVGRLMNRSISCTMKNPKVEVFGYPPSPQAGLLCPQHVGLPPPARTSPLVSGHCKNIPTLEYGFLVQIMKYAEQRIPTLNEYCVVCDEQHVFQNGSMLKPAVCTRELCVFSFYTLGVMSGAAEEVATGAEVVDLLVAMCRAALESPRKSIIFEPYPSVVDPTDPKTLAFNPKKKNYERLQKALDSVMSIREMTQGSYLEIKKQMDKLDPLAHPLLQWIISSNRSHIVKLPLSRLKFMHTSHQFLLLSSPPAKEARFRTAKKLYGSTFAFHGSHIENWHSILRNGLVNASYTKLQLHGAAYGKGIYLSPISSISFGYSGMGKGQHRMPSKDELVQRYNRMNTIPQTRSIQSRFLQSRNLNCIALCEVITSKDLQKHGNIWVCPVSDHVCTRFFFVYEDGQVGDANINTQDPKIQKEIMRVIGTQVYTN

SMILES	GI RM % (retention membrane percentage) [1]	Papp at 5 h, 500 μM [1]	IC50 (TNKS1)	BBB RM % (retention membrane percentage) [2]	Papp at 5 h, 500 μM [2]	EC50 [3]	Rescue of cells from PARP10-induced cell death [3]	IC50 (Human PARP6)	stab in human plasma [4]
COc1ccc(OC)c2c1sc1nnc(N)n12 [Compound 27, 5,8-Dimethoxy[1,2,4]triazolo[3,4-b][1,3]benzothiazol-3-amine]	1.3%	0.144 ×10⁻⁶ cm/s	5400 nM	3.4%	0.143 ×10⁻⁶ cm/s	150 nM	efficiently rescued cells from PARP10-induced cell death	7700 nM	>24 h
Cc1ccc2c(c1)sc1nnc(N)n12 [Compound 21, 7-Methyl[1,2,4]triazolo[3,4-b][1,3]benzothiazol-3-amine]	1.8%	0.281 ×10⁻⁶ cm/s	2100 nM	5.3%	0.475 ×10⁻⁶ cm/s	500 nM	efficiently rescued cells from PARP10-induced cell death	> 10000 nM	>24 h
